Here are results for 10 compounds from publication PMC12369603, “Functional characterization of antennae-enriched chemosensory protein 4 in emerald ash borer, Agrilus planipennis” (PeerJ, 2025).

In one experiment the test system is Mythimna separata. On the set-up: method as in Younas et al., 2022. The following applies: ref Younas et al., 2022; cited from earlier work.
Experiment [1] addresses T1, recombinant AplaCSP4 (Agrilus planipennis chemosensory protein 4) (Agrilus planipennis, UniProt A0A1W4XLL0). Description: biochemical. The following applies: for Competitive binding capability(%) / activity at 2 µM / activity at 4 µM / activity at 6 µM / activity at 8 µM / activity at 10 µM / activity at 12 µM: three replicate columns, 100 at 0 μM. It is filed as binding. The procedure: Specifically, the binding affinities of AplaCSP4 for 43 volatile organic compounds were determined using F-380 fluorescence spectrophotometer (Tianjin, China) with a 10 nm slits and a 1 cm light path. These 43 substances are common green leaf volatiles, among which 16 volatiles originate from the ash tree. […]

The target of experiment [2] is T1, recombinant AplaCSP4 (Agrilus planipennis chemosensory protein 4). The experiment in a line: Binding of fluorescent probe 1-NPN to AplaCSP4 (titration). The following applies: 2 µM protein in 50 mM Tris–HCl pH 7.4 titrated with 1-NPN 2-16 µM; read-out: binding affinity constant (KD) between 1-NPN and AplaCSP4. Here is the method:
Fluorescence competitive binding assays were conducted according to the method described by [Wang et al. (2021)]. Specifically, the binding affinities of AplaCSP4 for 43 volatile organic compounds were determined using F-380 fluorescence spectrophotometer (Tianjin, China) with a 10 nm slits and a 1 cm light path. These 43 substances are common green leaf volatiles, among which 16 volatiles originate from the ash tree. As the fluorescent probe, N-phenyl-1-naphthylamine (1-NPN) was excited at the wavelength of 337 nm, and emission spectra were recorded between 390 and 530 nm. […]

The subject of the next experiment is Cnaphalocrocis medinalis. On the set-up: method as in Cáceres et al., 2016; Sun et al., 2016. The following applies: ref Cáceres et al., 2016, Sun et al.; cited from earlier work.
Another experiment has as its system Phyllotreta cruciferae. On the set-up: method as in Cáceres et al., 2016; Sun et al., 2016. The following applies: ref Cáceres et al., 2016, Sun et al.; cited from earlier work.
Setting [3] is: ligand concentration 2 μM, 2 µM.
Where [4] appears, read: ligand concentration 4 μM, 4 µM.
Setting [5] is: ligand concentration 6 μM, 6 µM.
Where [6] appears, read: ligand concentration 8 μM, 8 µM.
[7] abbreviates: ligand concentration 10 μM, 10 µM.
[8] abbreviates: ligand concentration 12 μM, 12 µM.
Where [9] appears, read: read-out: K D ±SE (dissociation constant).
Setting [10] is: AplaCSP4 and 1-NPN each 2 µM, ligands with minimal binding single experiment, read-out: K D ±SE, “–” = no binding (IC50 >16 μM, KD not calculated).
The mark [11] stands for this setting: pH 7.4, read-out: Competitive binding capability(%), ligand concentration 2 μM.
The mark [12] stands for this setting: pH 7.4, read-out: Competitive binding capability(%), ligand concentration 4 μM.
Where [13] appears, read: pH 7.4, read-out: Competitive binding capability(%), ligand concentration 6 μM.
Where [14] appears, read: pH 7.4, read-out: Competitive binding capability(%), ligand concentration 8 μM.
Setting [15] is: pH 7.4, read-out: Competitive binding capability(%), ligand concentration 10 μM.
Setting [16] is: pH 7.4, read-out: Competitive binding capability(%), ligand concentration 12 μM.

Several values for one entry are separate records, joined by “and”; a condition that tells them apart may be missing. Identical values can stand only once. Like-named read-outs stand apart in the source and are kept apart here.

T1 sequence (A0A1W4XLL0 entry or part of it): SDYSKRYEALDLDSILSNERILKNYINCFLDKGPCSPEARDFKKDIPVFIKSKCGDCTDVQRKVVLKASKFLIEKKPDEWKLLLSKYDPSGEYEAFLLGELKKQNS

On to `C=CC(C)(O)CCC=C(C)CCC=C(C)C` (mixture of isomers) [Nerolidol], for which the attractive activity entry with Mythimna separata was “attractive activity”. Moreover, the “binding to AplaCSP4 (in words)” value in experiment [1] (discussion of fluorescence competitive binding results) is reported as “particularly high binding affinity”. Moreover, the “Competitive binding capability(%)” value is 51.463% and 50.752% in experiment [1] (setting [3]); 34.5446% and 32.1031% in experiment [1] (setting [4]); 25.4151% and 25.0577% in experiment [1] (setting [5]); 20.9595% and 20.5391% in experiment [1] (setting [6]); 17.6278% and 17.3179% in experiment [1] (setting [7]); 15.4258% and 15.6099% in experiment [1] (setting [8]). In experiment [1] (pH 7.4, ligand concentration 2 μM, read-out: Competitive binding capability(%)), the activity at 2 µM was 49.2%. Besides, the activity at 4 µM in experiment [1] (pH 7.4, ligand concentration 4 μM, read-out: Competitive binding capability(%)) was 35.3%. The activity at 6 µM in experiment [1] (pH 7.4, ligand concentration 6 μM, read-out: Competitive binding capability(%)) was determined as 25.6%. Also, the activity at 8 µM in experiment [1] (pH 7.4, ligand concentration 8 μM, read-out: Competitive binding capability(%)) worked out at 21.1%. In addition, the activity at 10 µM in experiment [1] (pH 7.4, ligand concentration 10 μM, read-out: Competitive binding capability(%)) turned out to be 17.9%. Besides, in experiment [1] (pH 7.4, ligand concentration 12 μM, read-out: Competitive binding capability(%)), the activity at 12 µM amounted to 16.1%. Further, the Kd in experiment [1] (setting [9]) was determined as 1.38 ± 0.03 µM.

As to `c1ccc(Nc2cccc3ccccc23)cc1` [1-NPN, N-phenyl-1-naphthylamine], the Kd in experiment [2] came out at 9.36 µM.

On to `CC/C=C\CCOC(=O)CC(C)C` [cis-3-Hexenyl isovalerate], for which the IC50 in experiment [1] (setting [10]) is greater than 16 µM.

As for `CCCCCCCC` [n-Octane], the “Competitive binding capability(%)” value in experiment [1] (setting [3]) is 86.2111% and 85.0437%; in experiment [1] (setting [4]), 71.3083% and 70.0543%; in experiment [1] (setting [5]), 57.8901% and 54.2819%; in experiment [1] (setting [6]), 46.7227% and 42.7241%; in experiment [1] (setting [7]), 38.967% and 35.7057%; in experiment [1] (setting [8]), 32.7961% and 31.347%. Besides, the activity at 2 µM in experiment [1] (setting [11]) amounted to 86%. For the same compound, the activity at 4 µM in experiment [1] (setting [12]) was found to be 67.9%. The activity at 6 µM in experiment [1] (setting [13]) amounted to 56.4%. The activity at 8 µM in experiment [1] (setting [14]) turned out to be 45%. Moreover, the activity at 10 µM in experiment [1] (setting [15]) is 38.2%. Moreover, in experiment [1] (setting [16]), the activity at 12 µM was 31.4%. The Kd in experiment [1] (setting [9]) turned out to be 4.83 ± 0.11 µM.

For the compound `CCCC/C=C/C=O` [trans-2-Heptenal], the half-inhibitory concentration (IC50) in experiment [1] (setting [10]) was greater than 16 µM.

For `CCC/C=C/C=O` [trans-2-Hexenal], in experiment [1], the IC50 is greater than 16 µM.

Take `CCC/C=C/COC(C)=O` [trans-2-Hexenyl acetate]: in experiment [1] (setting [10]), the IC50 is greater than 16 µM.

With `C=C1CC/C=C(\C)CC[C@@H]2[C@@H]1CC2(C)C` [β-Caryophyllene], in experiment [1], the IC50 is greater than 16 µM.

`CC(=O)/C=C/C1=C(C)CCCC1(C)C` [β-Ionone]: the repellent activity result with Cnaphalocrocis medinalis and in the experiment on Phyllotreta cruciferae was “repellent activity” each time. Further, in experiment [1], the Kd turned out to be 4.23 ± 0.07 µM. The “Competitive binding capability(%)” value in experiment [1] (setting [3]) was 74.4951% and 75.2037%; in experiment [1] (setting [4]), 60.2358% and 60.8061%; in experiment [1] (setting [5]), 50.2199% and 51.0303%; in experiment [1] (setting [6]) it was 42.8154% and 43.7153%; in experiment [1] (setting [7]), 37.3498% and 38.224%; in experiment [1] (setting [8]) it was 33.5198% and 33.2165%. Further, in experiment [1] (setting [11]), the activity at 2 µM is 75.8%. For the same compound, the activity at 4 µM in experiment [1] (setting [12]) is 61.2%. Moreover, the activity at 6 µM in experiment [1] (setting [13]) came out at 51.9%. Also, the activity at 8 µM in experiment [1] (setting [14]) turned out to be 45%. The activity at 10 µM in experiment [1] (setting [15]) stood at 38.5%. The activity at 12 µM in experiment [1] (setting [16]) worked out at 34.6%.

On to (±)-Citronellal, for which the IC50 in experiment [1] (setting [10]) is greater than 16 µM.

One may read the IC50 as the concentration needed to halve the response being measured.
